This note sets out measurements from US9808528B2, “Protein-polymer-drug conjugates and methods of using same” (priority 2014, dated 2017).

Where a SMILES comes first, the peptide text is derived from it. [ ]: non-standard residue; d: D form. The star is where a group is joined. Dolaproine = CO[C@@H]([C@@H]1CCCN1)[C@@H](C)C(=O)O; Dil = CC[C@H](C)[C@H](NC)[C@@H](CC(=O)O)OC; NMe2Val = CC(C)[C@@H](C(=O)*)N(C)C; NH(3-hydroxypropyl) = OCCCN*

One data set relates to JIMT1. As to the kind of experiment: Cell viability assay (Cell Titer-Glo). The format is cell-based. To be noted: 72 h incubation; HER2 medium expression level cells; AF-HPA as toxin equivalents. (In general: ATP-based viability assays read luminescence as a measure of living cells.)
A further data set concerns N87. As to the kind of experiment: Cell viability assay (Cell Titer-Glo). Type of data set: cell-based. The following applies: 72 h incubation; AF-HPA as toxin equivalents.
The subject of a further data set is SKBR3. As to the kind of experiment: Cell viability assay (Cell Titer-Glo). The format is cell-based. The following applies: 72 h incubation; AF-HPA as toxin equivalents.
The subject of the next data set is BT474. As to the kind of experiment: Cell viability assay (Cell Titer-Glo). The format is cell-based, human. To be noted: 72 h incubation; AF-HPA as toxin equivalents.
The subject of a further data set is MCF7. As to the kind of experiment: Cell viability assay (Cell Titer-Glo). The format is cell-based. The following applies: 72 h incubation; HER2 low expressing cells; AF-HPA as toxin equivalents.
In the next data set the target is hErbB2 (Homo sapiens, UniProt P04626). As to the kind of experiment: Ligand binding studies by BIAcore surface plasmon resonance (SPR). To be noted: 25° C.; immobilized hErbB2; BioRad ProteOn XPR36.
A further data set deals with JIMT-1. The following applies: read-out: IC50 JIMT-1; HER2 molecules per cell 80,000; Her2 expression 2+; 72 hours or 6 days.
A further data set deals with JIMT-1 cells. As to the kind of experiment: Tumor growth response, JIMT-1 xenograft. Type of data set: in vivo, mice.
The next data set relates to HL-60. As to the kind of experiment: Cell viability assay (Cell Titer-Glo). The format is cell-based. To be noted: for IC50: CD33 expressing cells, 72 h or 6 days incubation. On the procedure:
Dose response curves were generated using SoftMax Pro software. IC50 values were determined from four-parameter curve fitting.
CD33 expressing cells HL-60 were passed at a density of 5,000 cells per well and treated with PBRM-polymer-drug conjugate on the same day. After 72 h or 6 days incubation, the cells were analyzed using the same procedure described above.

Data set [1] is described as follows: Mouse tissue distribution after administration of PBRM-polymer-drug conjugates.
Experimental: To determine the concentration of the free drug in the sample, the acidified sample was treated with acetonitrile. The free drug was extracted from the supernatant and analyzed by LC-MS/MS.
At 48 hours post administration, the mice were sacrificed and the blood was collected by terminal cardiac.
Another data set has as its system NCI-N87 cells. As to the kind of experiment: Tumor growth response, NCI-N87 xenograft. The format is in vivo, mice.
In the next data set the test system is HL-60 cells. As to the kind of experiment: Tumor growth response, HL-60 xenograft. The format is in vivo, mice. The following applies: for tumor volume response (in words), FIG. 3: single IV dose day 1, 20 mg/kg.
The subject of a further data set is BT474 tumor fragments. As to the kind of experiment: Tumor growth response, BT474 xenograft. Type of data set: in vivo, mice.

Experimental for BT474 tumor fragments: (§1) Female CB-17 SCID mice were inoculated subcutaneously with BT474 tumor fragments (n=10 for each group) or JIMT-1 cells (n=10 for each group) or NCI-N87 cells (n=10 for each group). […] Test compounds or vehicle were dosed IV as a single dose on day 1. Tumor size was measured at the times indicated in FIGS. 1 to 6 using digital calipers. Tumor volume was calculated and was used to determine the delay in tumor growth. Mice were sacrificed when tumors reached a size of 800 to 1500 mm^3. Tumor volumes are reported as the mean±SEM (“standard error of mean”) for each group.
Experimental for HL-60 cells: Female NCr nu/nu mice were inoculated subcutaneously with HL-60 cells (n=10 for each group). Test compounds or vehicle were dosed IV as a single dose on day 1. Tumor size was measured at the times indicated in FIGS. 1 to 6 using digital calipers. Tumor volume was calculated and was used to determine the delay in tumor growth. Mice were sacrificed when tumors reached a size of 800 to 1500 mm^3. Tumor volumes are reported as the mean±SEM (“standard error of mean”) for each group.
Female NCr nu/nu mice were inoculated subcutaneously with HL-60 cells (n=10 for each group). Test compounds or vehicle were dosed IV as a single dose on day 1. Tumor size was measured at the times indicated in FIG. 3 using digital calipers. Tumor volume was calculated and was used to determine the delay in tumor growth. Mice were sacrificed when tumors reached a size of 2000 mm^3. Tumor volumes are reported as the mean±SEM for each group.
Experimental for JIMT-1 cells: as §1
Experimental for JIMT1: (§2) PBRM-polymer-drug conjugates were evaluated for their antiproliferation properties in tumor cell lines in vitro using Cell Titer-Glo (Promega Corp). Cells were plated in black walled 96-well plate and allowed to adhere overnight at 37° C. in a humidified atmosphere of 5% CO2. SKBR3, BT474, NCI-N87 cells (HER2 expressing cells), MCF7 cells (HER2 low expressing levels cells) and JIMT1 cells (HER2 medium expression level cells) were plated at a density of 5,000 cells per well. The next day the medium was replaced with 50 μL fresh medium and 50 μL of 2× stocks of PBRM-polymer-drug conjugate, drug polymer conjugate or drug were added to appropriate wells, mixed and incubated for 72 h. Cell Titer-Glo reagent was added to the wells at room temperature and the luminescent signal was measured after 10 min using a SpectraMax M5 plate reader (Molecular Devices). Dose response curves were generated using SoftMax Pro software. IC50 values were determined from four-parameter curve fitting.
Experimental for MCF7: as §2
Experimental for NCI-N87 cells: as §1
Experimental for SKBR3: as §2
Experimental for hErbB2: The kinetic binding of the PBRM-polymer-drug conjugate to an immobilized receptor is determined by BIAcore SPR. The binding constants for the PBRM in the PBRM-polymer-drug conjugate and PBRM alone can be determined using standard BIAcore procedures.
The kinetic binding of the PBRM-polymer-drug conjugate to an immobilized receptor was determined by BIAcore SPR.

The IC50 is the midpoint of a concentration-inhibition curve. On to “Trastuzumab-((EG2-MI (2%)-(10 kDa PHF-BA (28%)-(AF-HPA-Ala (9%) [Example 18B]”, for which the IC50 in the data set with JIMT1 is 0.12 nM; in the data set on N87, 0.04 nM; in the data set on SKBR3, 0.01 nM; with BT474, 0.05 nM; with MCF7 it was 33 nM. For the same compound, the “ka (association or affinity rate constant)” value (shortened to “ka”) at hErbB2 is reported as 3.05 ± 0.2 × 10^5 M^−1s^−1. On hErbB2, the “kd (dissociation rate constant)” value is 2.46 ± 0.1 × 10^−5 s^−1.

In the case of “Trastuzumab-((EG2-MI (2%)-(10 kDa PHF-BA (28%)-(AF-HPA-Ala (9%) [Example 17]”, the IC50 in the data set with JIMT1 came out at 0.06 nM; in the data set with N87, 0.43 nM; with JIMT-1 it was 0.3 nM; with SKBR3 it was 0.03 nM; in the data set on BT474, 0.03 nM; with MCF7, 28.8 nM. For the same compound, at hErbB2, the “ka” value is 8.30 ± 0.2 × 10^5 M^−1s^−1. The “kd (dissociation rate constant)” value on hErbB2 was 2.32 ± 0.2 × 10^−5 s^−1.

With “Trastuzumab-((EG2-MI (2%)-(10 kDa PHF-BA (28%)-(AF-HPA-Ala (9%) [Example 18A]”, the IC50 was 0.16 nM in the data set with JIMT1; 0.06 nM with N87; 0.02 nM in the data set on SKBR3; 0.04 nM in the data set on BT474; 9.6 nM with MCF7. Further, the “ka” value at hErbB2 is listed as 4.67 ± 0.7 × 10^5 M^−1s^−1. Moreover, on hErbB2, the “kd (dissociation rate constant)” value is 2.07 ± 0.2 × 10^−5 s^−1.

Turning to “Trastuzumab-((EG2-MI (2%)-(10 kDa PHF-BA (28%)-(AF-HPA-Ala (9%) [Example 14]”, the “regressions, FIG. 4A” value with JIMT-1 cells (2.0 mg/kg single IV dose) is recorded as 100%. Further, in the data set with JIMT-1 cells (2.0 mg/kg single IV dose), the “tumor free survival, FIG. 4A” value is 100%. Moreover, the “tumor volume response (in words), FIG. 4A” value in the data set with JIMT-1 cells (single IV dose day 1, Example 14 at 2, 0.67 and 0.3 mg/kg, trastuzumab 20 mg/kg, Kadcyla 20 mg/kg) is recorded as “reduction of tumor volume”. Besides, the IC50 in the data set with JIMT1 turned out to be 0.13 nM; in the data set with N87 it was 0.11 nM; in the data set with SKBR3, 0.02 nM; with BT474 it was 0.07 nM; with MCF7, 28.9 nM. Besides, at hErbB2, the “ka” value is given as 3.91 ± 0.3 × 10^5 M^−1s^−1. Also, the “kd (dissociation rate constant)” value on hErbB2 is listed as 2.56 ± 0.1 × 10^−5 s^−1.

Regarding “Rituximab-((EG2-MI (3%)-(10 kDa PHF-BA (30%)-(AF-HPA-Ala (8%)) [Example 9]”, in the data set on HL-60, the IC50 came out at 6.74 nM.

In the case of `CC[C@H](C)[C@@H]([C@@H](CC(=O)N1CCC[C@H]1[C@H](OC)[C@@H](C)C(=O)N[C@@H](Cc1ccccc1)C(=O)NCCCO)OC)N(C)C(=O)[C@@H](NC(=O)[C@H](C(C)C)N(C)C)C(C)C` [AF-HPA, Auristatin F-hydroxypropylamide] (NMe2Val-V[Dil][Dolaproine]F-{NH(3-hydroxypropyl)}), the “metabolism of unconjugated AF-HPA in plasma (in words)” value in [1] (in plasma) was “not converted to AF”. In [1] (in tissue), the “metabolism of released unconjugated AF-HPA in tissue (in words)” value is “further metabolized to AF”. For the same compound, the IC50 in the data set with JIMT1 was 0.86 nM; with N87, 0.42 nM; in the data set with BT474 it was 1.01 nM; in the data set with HL-60 it was 4.8 nM; with MCF7 it was 4.4 nM.

Turning to “Rituximab-((EG2-MI (2%)-(10 kDa PHF-BA (28%)-(AF-HPA-Ala (9%)) [Example 16]”, the IC50 in the data set with JIMT1 stood at 1.88 nM; in the data set on N87, 5.23 nM; with BT474, 3.04 nM; in the data set with MCF7, 27.9 nM. In the data set with NCI-N87 cells (single IV dose, Example 14 at […], Example 16 at 3 mg/kg), the “tumor growth response (in words), FIG. 6” value is on record as “no effect on tumor growth”.

“Trastuzumab-((EG2-MI (2.5%)-(10 kDa PHF-BA (28%)-(AF-HPA-Ala (8.4%) [Example 10]”: in the data set with JIMT-1 cells (2.0 mg/kg single IV dose), the “regressions, FIG. 4B” value turned out to be 100% and the “tumor free survival at the end of the study, FIG. 4B” value was “all of which remained tumor free survival”. Further, the “tumor volume response (in words), FIG. 4B” value in the data set on JIMT-1 cells (2 mg/kg single dose or […] weekly for 3 weeks, IV) was “reduction of tumor volume”.

With lintuzumab, the “tumor volume response (in words), FIG. 3” value in the data set with HL-60 cells is “increase of tumor volume”.

For the compound “Trastuzumab-((EG2-MI (1%))-(10 kDa PHF-GA (29%)-(AF-HPA-Ala (6%)) [Example 13]”, in the data set on BT474 tumor fragments (5 mg/kg single IV dose), the “regressions, FIG. 1” value was 100% and the “tumor free survival, FIG. 1” value is given as 80%. Further, the “tumor volume response (in words), FIG. 1” value in the data set on BT474 tumor fragments (single IV dose day 1, conjugates […] and 5 mg/kg, trastuzumab 10 mg/kg) was “reduction of tumor volume”.

Regarding “Trastuzumab-((EG2-MI (2%)-(10 kDa PHF-BA (28%)-(AF-HPA-Ala (9%) [Example 15]”, the IC50 in the data set with JIMT1 was 0.12 nM; in the data set with N87 it was 0.11 nM; with SKBR3, 0.01 nM; with BT474 it was 0.05 nM; in the data set on MCF7, 23.5 nM. In the data set with NCI-N87 cells (1 mg/kg single IV dose), the “complete regression out of 10 animals, FIG. 5” value stood at 1. Besides, the “partial regressions out of 10 animals, FIG. 5” value with NCI-N87 cells (1 mg/kg single IV dose) is 7. In addition, in the data set with NCI-N87 cells (3 mg/kg single IV dose), the “complete responses, FIG. 5” value is recorded as 100. In the data set with NCI-N87 cells (3 mg/kg single IV dose), the “tumor response (in words), FIG. 5” value is recorded as “complete regression of tumor volume”.

Regarding “Trastuzumab-((EG2-MI (2%)-(10 kDa PHF-BA (28%)-(AF-HPA-Ala (9%) [Example 18C]”, the IC50 in the data set on JIMT1 was 0.18 nM; with N87, 0.06 nM; in the data set with SKBR3, 0.02 nM; in the data set on BT474, 0.03 nM; with MCF7, 3.8 nM. Besides, the “ka” value at hErbB2 is reported as 4.25 ± 0.5 × 10^5 M^−1s^−1. In addition, the “kd (dissociation rate constant)” value at hErbB2 is listed as 2.03 ± 0.1 × 10^−5 s^−1.

On to “Lintuzumab-((EG2-MI (2%)-(10 kDa PHF-BA (30%)-(AF-HPA-Ala (9%)) [Example 8]”, for which the “antiproliferative activity compared to control conjugate (in words)” value with HL-60 (CD33 expressing cell line HL-60) is given as “higher antiproliferative activity”. In the data set on HL-60, this compound came in with an IC50 of 0.77 nM. Further, the “regressions, FIG. 3” value in the data set with HL-60 cells (20 mg/kg single IV dose) was determined as 100%. For the same compound, the “tumor free survival on day 44, FIG. 3” value in the data set on HL-60 cells (20 mg/kg single IV dose, day 44) was found to be 70%. Moreover, in the data set with HL-60 cells, the “tumor volume response (in words), FIG. 3” value is “reduction of tumor volume”.
